PubChem BioAssay (NCI)
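Following 48 hours of exposure in 96-well plates, responses at five concentrations were used to interpolate endpoints linearly. GI50 is the concentration that inhibits growth by half. TGI: concentration producing complete growth inhibition.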

Assays:
Assay in all cases: DTP human tumour cell line panel, 48 h
[1] = system: TK-10 renal
[2] = system: RPMI-8226 leukemia
[3] = system: MDA-MB-435
[4] = system: U251 CNS
[5] = system: MDA-MB-231 breast
[6] = system: CCRF-CEM leukemia
[7] = system: COLO 205 colon
[8] = system: LOX IMVI melanoma
[9] = system: UACC-62 melanoma
[10] = system: SK-MEL-2 melanoma
[11] = system: HCC-2998 colon
[12] = system: BT-549 breast
[13] = system: NCI-H226 lung
[14] = system: OVCAR-8 ovarian
[15] = system: SR leukemia
[16] = system: EKVX NSCLC
[17] = system: K-562 leukemia
[18] = system: SF-539 CNS
[19] = system: NCI-H460 lung
[20] = system: T-47D breast
[21] = system: MALME-3M melanoma
[22] = system: OVCAR-5 ovarian
[23] = system: SK-MEL-28 melanoma
[24] = system: SK-MEL-5 melanoma
[25] = system: RXF 393 renal
[26] = system: M14 melanoma
[27] = system: SN12C renal
[28] = system: IGROV1 ovarian
[29] = system: OVCAR-4 ovarian
[30] = system: SF-268 CNS
[31] = system: NCI/ADR-RES ovarian
[32] = system: OVCAR-3 ovarian
[33] = system: HT29 colon
[34] = system: 786-0 renal
[35] = system: NCI-H522 lung
[36] = system: SW-620 colon
[37] = system: ACHN renal
[38] = system: UO-31 renal
[39] = system: HS 578T breast
[40] = system: MCF7 breast
[41] = system: PC-3 prostate
[42] = system: MOLT-4 leukemia
[43] = system: HOP-92 NSCLC
[44] = system: DU-145 prostate
[45] = system: SK-OV-3 ovarian
[46] = system: HOP-62 NSCLC
[47] = system: UACC-257 melanoma
[48] = system: SF-295 CNS
[49] = system: HL-60(TB) leukemia
[50] = system: CAKI-1 renal
[51] = system: HCT-15 colon
[52] = system: SNB-75 CNS
[53] = system: SNB-19 CNS
[54] = system: A549 NSCLC
[55] = system: HCT-116 colon
[56] = system: A498 renal
[57] = system: NCI-H23 lung
[58] = system: KM12 colon

SMILES: NS(=O)(=O)N(c1cc(C(F)(F)F)cc(C(F)(F)F)c1)C1CCN(Cc2ccc(F)cc2)CC1
- GI50 [1]: 12.2 µM
- TGI [1]: 25.4 µM
- GI50 [2]: 5.24 µM
- TGI [2]: 22.3 µM
- GI50 [3]: 6.4 µM
- TGI [3]: 19.7 µM
- GI50 [4]: 10.7 µM
- TGI [4]: 24.5 µM
- GI50 [5]: 12.1 µM
- TGI [5]: 26.2 µM
- GI50 [6]: 12 µM
- TGI [6]: 36.3 µM
- GI50 [7]: 1.64 µM
- TGI [7]: 3.08 µM
- GI50 [8]: 3.83 µM
- TGI [8]: 13.7 µM
- GI50 [9]: 12.7 µM
- TGI [9]: 25.6 µM
- GI50 [10]: 5.87 µM
- TGI [10]: 18.1 µM
- GI50 [11]: 1.83 µM
- TGI [11]: 3.56 µM
- GI50 [12]: 12.5 µM
- TGI [12]: 24.9 µM
- GI50 [13]: 6.73 µM
- TGI [13]: 21.7 µM
- GI50 [14]: 15.5 µM
- TGI [14]: 33.9 µM
- GI50 [15]: 2.4 µM
- TGI [15]: 9.02 µM
- GI50 [16]: 11.2 µM
- TGI [16]: 23.8 µM
- GI50 [17]: 3.68 µM
- TGI [17]: 19 µM
- GI50 [18]: 14.1 µM
- TGI [18]: 27.6 µM
- GI50 [19]: 13.2 µM
- TGI [19]: 31 µM
- GI50 [20]: 2.74 µM
- TGI [20]: 13.9 µM
- GI50 [21]: 2.31 µM
- TGI [21]: 9.5 µM
- GI50 [22]: 10.9 µM
- TGI [22]: 23.2 µM
- GI50 [23]: 11.6 µM
- TGI [23]: 23.8 µM
- GI50 [24]: 3.44 µM
- TGI [24]: 12.7 µM
- GI50 [25]: 4.42 µM
- TGI [25]: 16.6 µM
- GI50 [26]: 6.12 µM
- TGI [26]: 18.4 µM
- GI50 [27]: 2.97 µM
- TGI [27]: 11.6 µM
- GI50 [28]: 4.89 µM
- TGI [28]: 18 µM
- GI50 [29]: 10.5 µM
- TGI [29]: 22.2 µM
- GI50 [30]: 10.9 µM
- TGI [30]: 22.9 µM
- GI50 [31]: 6.72 µM
- TGI [31]: 19.4 µM
- GI50 [32]: 7.6 µM
- TGI [32]: 20.4 µM
- GI50 [33]: 2.68 µM
- TGI [33]: 7.51 µM
- GI50 [34]: 11.4 µM
- TGI [34]: 23.5 µM
- GI50 [35]: 3.52 µM
- TGI [35]: 13.4 µM
- GI50 [36]: 13.7 µM
- TGI [36]: 30.7 µM
- GI50 [37]: 11.2 µM
- TGI [37]: 23.3 µM
- GI50 [38]: 3.67 µM
- TGI [38]: 16.4 µM
- GI50 [39]: 13.8 µM
- TGI [39]: 33.6 µM
- GI50 [40]: 5.44 µM
- TGI [40]: 18.5 µM
- GI50 [41]: 4.54 µM
- TGI [41]: 17.6 µM
- GI50 [42]: 8.51 µM
- TGI [42]: 29.6 µM
- GI50 [43]: 1.87 µM
- TGI [43]: 15.2 µM
- GI50 [44]: 13.5 µM
- TGI [44]: 26.3 µM
- GI50 [45]: 10.9 µM
- TGI [45]: 23.3 µM
- GI50 [46]: 3.51 µM
- TGI [46]: 14.1 µM
- GI50 [47]: 11.5 µM
- TGI [47]: 25.3 µM
- GI50 [48]: 13.8 µM
- TGI [48]: 27.7 µM
- GI50 [49]: 9.11 µM
- TGI [49]: 28.6 µM
- GI50 [50]: 7.21 µM
- TGI [50]: 20.4 µM
- GI50 [51]: 7.3 µM
- TGI [51]: 21.8 µM
- GI50 [52]: 13.2 µM
- TGI [52]: 25.9 µM
- GI50 [53]: 14.3 µM
- TGI [53]: 27.8 µM
- GI50 [54]: 12.4 µM
- TGI [54]: 29.1 µM
- GI50 [55]: 7.38 µM
- TGI [55]: 19.8 µM
- GI50 [56]: 12.3 µM
- TGI [56]: 26.1 µM
- GI50 [57]: 10.4 µM
- TGI [57]: 22.1 µM
- GI50 [58]: 5.16 µM
- TGI [58]: 17 µM
